Reference: patent US7989008B2, “Cosmetic preparations designed to reduce unsightly cellulite” (Menarini Industrie Farmaceutiche Riunite S.R.L., priority 2007, dated 2011)

tested on: tissue affected by cellulite (surface temperature of the skin); experiment: Liquid-crystal thermography, indirect instrumental assessment of treatment efficacy; type: in vivo, women; details: after repeated treatment
Text: Liquid-crystal thermography was used to conduct an indirect instrumental assessment of the efficacy of the treatment. On the basis of the surface temperature, this technique distinguishes between normal adipose tissue and tissue affected by cellulite, in which the reduced blood flow causes progressive cooling of the skin, proportional to the severity of the cosmetic problem. After repeated treatment with compound (I), the difference in temperature between the normal skin area (unaffected by cellulite) and the affected area had reduced considerably, about 70% of the temperature reduction previously observed having been eliminated. The effects of treatment with compounds A and B were evaluated for comparison purposes.

Row | SMILES | temperature difference between normal skin area and area affected by cellulite eliminated
1 | CC1(C)C(=O)NN=C1c1ccc(NC2=C(Cc3cccc(C#N)c3)C(=O)CCC2)c(F)c1F [Compound A, 3-[2-[4-(4,4-dimethyl-5-oxo-4,5-dihydro-1-H-pyrazol-3-yl)-2,3-difluoro-phenylamine]-6-oxocyclohex-1-enylmethyl]-benzonitrile] | ~50%
2 | CC1(C)C(=O)NN=C1c1ccc(NC2=C(Cc3ccc(F)cc3)C(=O)CCC2)cc1F [Compound B, 5-{4-[2-(4-fluoro-benzyl)-3-oxo-cyclohex-1-enylamine]-2-fluoro-phenyl}-4,4-dimethyl-2,4-dihydro-pyrazol-3-one] | ~50%
3 | CC1(C)C(=O)NN=C1c1ccc(NC2=C(Cc3ccc(F)cc3)C(=O)CCC2)c(F)c1F [Compound of formula (I), 5-{4-[2-(4-fluoro-benzyl)-3-oxo-cyclohex-1-enylamine]-2,3-difluoro-phenyl}-4,4-dimethyl-2,4-dihydropyrazol-3-one] | about 70%
